≈ marks a conversion by molar mass, not a printed value.
Experiments:
[1] = test system: Clostridium difficile A21675; experiment: Antibacterial MIC, serial agar dilution; type: cell-based; settings: Clostridioides difficile, anaerobic, GAM agar, clindamycin-resistant
[2] = test system: Clostridium perfringens A9635; experiment: microbe, parasite or virus in culture; type: cell-based
[3] = test system: Propionibacterium acnes A21933; experiment: Antibacterial MIC, serial agar dilution; type: cell-based; settings: Cutibacterium acnes, anaerobic, GAM agar
[4] = test system: Peptostreptococcus anaerobius A21905; experiment: Antibacterial MIC, serial agar dilution; type: cell-based; settings: anaerobic, GAM agar, read-out: MIC
[5] = test system: Bacteroides fragilis A22693; experiment: Antibacterial MIC, serial agar dilution; type: cell-based; settings: anaerobic, GAM agar
[6] = test system: Bacteroides fragilis A22534; experiment: Antibacterial MIC, serial agar dilution; type: cell-based; settings: anaerobic, GAM agar, ampicillin-resistant, read-out: MIC
[7] = test system: Staphylococcus aureus 209P; experiment: Antibacterial MIC, serial agar dilution; type: cell-based; settings: aerobic, nutrient agar
[8] = test system: Staphylococcus aureus Smith; experiment: Antibacterial MIC, serial agar dilution; type: cell-based; settings: aerobic, nutrient agar
[9] = test system: Staphylococcus aureus A20234; experiment: Antibacterial MIC, serial agar dilution; type: cell-based; settings: aerobic, nutrient agar, kanamycin-resistant
[10] = test system: Staphylococcus aureus BX1633; experiment: Antibacterial MIC, serial agar dilution; type: cell-based; settings: aerobic, nutrient agar, ampicillin-resistant
[11] = test system: Staphylococcus aureus A15097; experiment: Antibacterial MIC, serial agar dilution; type: cell-based; settings: aerobic, nutrient agar, methicillin-resistant
[12] = test system: Staphylococcus epidermidis D153; experiment: Antibacterial MIC, serial agar dilution; type: cell-based; settings: aerobic, nutrient agar
[13] = test system: Staphylococcus epidermidis A22152; experiment: Antibacterial MIC, serial agar dilution; type: cell-based; settings: aerobic, nutrient agar, kanamycin-resistant
[14] = test system: Enterococcus faecalis A9612; experiment: Antibacterial MIC, serial agar dilution; type: cell-based; settings: aerobic, nutrient agar
[15] = test system: Micrococcus luteus 1001; experiment: Antibacterial MIC, serial agar dilution; type: cell-based; settings: aerobic, nutrient agar
[16] = test system: Bacillus subtilis PCI-219; experiment: Antibacterial MIC, serial agar dilution; type: cell-based; settings: PCI219, aerobic, nutrient agar
[17] = test system: Escherichia coli NIHJ; experiment: Antibacterial MIC, serial agar dilution; type: cell-based; settings: aerobic, nutrient agar
[18] = test system: Escherichia coli Juhl; experiment: Antibacterial MIC, serial agar dilution; type: cell-based; settings: aerobic, nutrient agar
[19] = test system: Escherichia coli A20665; experiment: Antibacterial MIC, serial agar dilution; type: cell-based; settings: aerobic, nutrient agar, kanamycin-resistant
[20] = test system: Escherichia coli A9624; experiment: Antibacterial MIC, serial agar dilution; type: cell-based; settings: aerobic, nutrient agar, kanamycin-resistant
[21] = test system: Escherichia coli A20341-1; experiment: Antibacterial MIC, serial agar dilution; type: cell-based; settings: A203411, aerobic, nutrient agar, ampicillin-resistant
[22] = test system: Enterobacter cloacae A9659; experiment: Antibacterial MIC, serial agar dilution; type: cell-based; settings: aerobic, nutrient agar
[23] = test system: Klebsiella pneumoniae D11; experiment: Antibacterial MIC, serial agar dilution; type: cell-based; settings: aerobic, nutrient agar
[24] = test system: Klebsiella pneumoniae A20680; experiment: Antibacterial MIC, serial agar dilution; type: cell-based; settings: aerobic, nutrient agar, kanamycin-resistant
[25] = test system: Pseudomonas aeruginosa A9930; experiment: Antibacterial MIC, serial agar dilution; type: cell-based; settings: aerobic, nutrient agar
[26] = test system: Proteus vulgaris A9436; experiment: Antibacterial MIC, serial agar dilution; type: cell-based; settings: aerobic, nutrient agar
[27] = test system: Proteus mirabilis A9554; experiment: Antibacterial MIC, serial agar dilution; type: cell-based; settings: aerobic, nutrient agar
[28] = test system: Morganella morganii A9553; experiment: Antibacterial MIC, serial agar dilution; type: cell-based; settings: aerobic, nutrient agar
[29] = test system: Serratia marcescens A20222; experiment: Antibacterial MIC, serial agar dilution; type: cell-based; settings: aerobic, nutrient agar
[30] = test system: B16-F10; experiment: In vitro cytotoxicity; type: cell-based, murine; settings: Mus musculus, 72 hours, neutral red, 540 nm
[31] = test system: Moser; experiment: In vitro cytotoxicity; type: cell-based; settings: Homo sapiens; 72 hours, neutral red, 540 nm
[32] = test system: HCT-116; experiment: In vitro cytotoxicity; type: cell-based; settings: Homo sapiens, 72 hours, neutral red, 540 nm
[33] = test system: DNA synthesis in L1210 cells; experiment: Inhibition of macromolecule synthesis in L1210 leukemia; type: cell-based; settings: Mus musculus; 3H-thymidine, L1210, 15 min + 60 min, 37° C.
[34] = test system: RNA synthesis in L1210 cells; experiment: as above; type: cell-based; settings: Mus musculus; 14C-uridine, L1210, 15 min + 60 min, 37° C.
[35] = test system: Protein synthesis in L1210 cells; experiment: as above; type: cell-based; settings: Mus musculus; 3H-leucine, L1210, 15 min + 60 min, 37° C.

**Q.** What does the source list for `CCC[C@@H]1C[C@@H](C(=O)N[C@@H]([C@H]2O[C@H](SC)[C@H](O)[C@@H](O)[C@H]2O)[C@H](C)Cl)N(C)C1` [Clindamycin, reference compound]?
**A.** MIC [1]: > 100 µg/mL; MIC [2]: 0.025 µg/mL (≈ 0.0588 µM); MIC [3]: 0.4 µg/mL (≈ 0.941 µM); MIC [4]: 0.4 µg/mL (≈ 0.941 µM); MIC [5]: 0.05 µg/mL (≈ 0.118 µM); MIC [6]: 0.8 µg/mL (≈ 1.88 µM)

**Q.** What does the source list for `NC[C@H]1O[C@H](O[C@H]2[C@H](O)[C@@H](O[C@H]3O[C@H](CO)[C@@H](O)[C@H](N)[C@H]3O)[C@H](N)C[C@@H]2N)[C@H](O)[C@@H](O)[C@@H]1O` [Kanamycin A, reference compound]?
**A.** MIC [7]: 0.2 µg/mL (≈ 0.413 µM); MIC [8]: 0.8 µg/mL (≈ 1.65 µM); MIC [9]: 100 µg/mL (≈ 206 µM); MIC [10]: 0.8 µg/mL (≈ 1.65 µM); MIC [11]: 0.8 µg/mL (≈ 1.65 µM); MIC [12]: 0.4 µg/mL (≈ 0.826 µM); MIC [13]: 12.5 µg/mL (≈ 25.8 µM); MIC [14]: 25 µg/mL (≈ 51.6 µM); MIC [15]: 3.1 µg/mL (≈ 6.4 µM); MIC [16]: 0.2 µg/mL (≈ 0.413 µM); MIC [17]: 1.6 µg/mL (≈ 3.3 µM); MIC [18]: 6.3 µg/mL (≈ 13 µM); MIC [19]: > 100 µg/mL; MIC [20]: > 100 µg/mL; MIC [21]: 6.3 µg/mL (≈ 13 µM); MIC [22]: 3.1 µg/mL (≈ 6.4 µM); MIC [23]: 0.4 µg/mL (≈ 0.826 µM); MIC [24]: > 100 µg/mL; MIC [25]: 25 µg/mL (≈ 51.6 µM); MIC [26]: 0.4 µg/mL (≈ 0.826 µM); MIC [27]: 3.1 µg/mL (≈ 6.4 µM); MIC [28]: 3.1 µg/mL (≈ 6.4 µM); MIC [29]: 6.3 µg/mL (≈ 13 µM)

**Q.** Which results are given for `CO[C@@]12[C@H](COC(N)=O)C3=C(C(=O)C(C)=C(N)C3=O)N1C[C@@H]1N[C@@H]12` [Mitomycin C, reference compound]?
**A.** IC50 [30]: 0.5 µg/mL (≈ 1.5 µM); IC50 [31]: 1.2 µg/mL (≈ 3.59 µM); IC50 [32]: 0.8 µg/mL (≈ 2.39 µM); IC50 [33]: 1.7 µg/mL; IC50 [34]: > 100 µg/mL; IC50 [35]: > 100 µg/mL

Reference: patent US4916065A (priority 1988, dated 1990)
